What is called IC50 is the concentration at which inhibition is half-maximal. A lower IC50 goes with greater potency.

The target in this assay is HER2YVMA (Homo sapiens, UniProt P04626, INS775YVMA). Briefly: Enzymatic assay HER2YVMA (method b). The assay is classed as biochemical. The settings on record: [HER2YVMA]=5 nM, [ATP]=25 μM, [Peptide 22]=1 μM. More on the design: purchased Viva biotech, Shanghai, China custom purification. Put shortly: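 Microfluidic mobility-shift kinase assay with Peptide 22 (1 μM) in HEPES pH 7.5, MnCl2, MgCl2, Tween 20, TCEP. HER2 WT 12.5 nM and HER2 YVMA 5 nM each used 25 μM ATP; EGFR WT 2 nM used 1 mM ATP. IC50 came from initial-velocity (0–3600 s) percent inhibition, fitted to a variable-slope model.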
Chain of HER2YVMA (P04626 with tags, fused parts or gaps INS775YVMA): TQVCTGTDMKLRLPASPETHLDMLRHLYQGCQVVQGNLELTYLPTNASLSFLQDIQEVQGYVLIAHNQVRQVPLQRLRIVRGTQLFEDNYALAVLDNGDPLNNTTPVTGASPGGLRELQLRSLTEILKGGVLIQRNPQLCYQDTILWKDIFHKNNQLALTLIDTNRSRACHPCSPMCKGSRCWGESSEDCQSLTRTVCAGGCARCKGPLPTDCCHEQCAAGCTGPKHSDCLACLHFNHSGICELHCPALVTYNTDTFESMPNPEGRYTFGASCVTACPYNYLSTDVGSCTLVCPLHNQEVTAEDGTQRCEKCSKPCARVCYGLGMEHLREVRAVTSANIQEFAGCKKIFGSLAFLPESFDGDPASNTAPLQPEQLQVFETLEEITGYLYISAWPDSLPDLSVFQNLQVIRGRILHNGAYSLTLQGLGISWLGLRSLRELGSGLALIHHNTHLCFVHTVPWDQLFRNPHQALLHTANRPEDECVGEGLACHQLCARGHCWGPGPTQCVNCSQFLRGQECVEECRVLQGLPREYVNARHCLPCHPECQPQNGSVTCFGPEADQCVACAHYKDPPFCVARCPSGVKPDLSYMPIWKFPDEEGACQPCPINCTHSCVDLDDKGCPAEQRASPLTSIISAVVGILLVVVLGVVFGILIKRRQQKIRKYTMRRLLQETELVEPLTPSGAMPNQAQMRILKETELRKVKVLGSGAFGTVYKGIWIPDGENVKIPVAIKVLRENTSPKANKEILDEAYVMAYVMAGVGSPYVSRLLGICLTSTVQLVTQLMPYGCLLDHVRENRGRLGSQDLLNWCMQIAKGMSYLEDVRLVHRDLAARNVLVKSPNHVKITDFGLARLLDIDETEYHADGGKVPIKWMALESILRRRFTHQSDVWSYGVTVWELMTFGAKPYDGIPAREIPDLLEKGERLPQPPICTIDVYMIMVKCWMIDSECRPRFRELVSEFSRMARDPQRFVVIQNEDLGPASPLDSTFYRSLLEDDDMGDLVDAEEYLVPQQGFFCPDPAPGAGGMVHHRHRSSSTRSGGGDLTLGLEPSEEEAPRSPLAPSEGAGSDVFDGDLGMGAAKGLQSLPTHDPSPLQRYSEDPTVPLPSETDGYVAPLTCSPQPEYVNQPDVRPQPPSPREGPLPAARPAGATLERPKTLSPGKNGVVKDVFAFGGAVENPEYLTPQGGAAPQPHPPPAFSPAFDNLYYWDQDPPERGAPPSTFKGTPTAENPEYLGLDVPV
For the molecule `Cc1ccc(Oc2ccc(Nc3ncnc4sc5c(c34)CCN(C(=O)/C=C/CNC34CCC(C#N)(CC3)CC4)C5)cc2C)cn1` [Compound 72], the 50% inhibitory concentration (IC50) was below 0.1 µM.

The molecule `Cc1ccc(Oc2ccc(Nc3ncnc4sc5c(c34)CCN(C(=O)/C=C/CN3CCC(n4ccnc4)CC3)C5)cc2C)cn1` [Compound 62] came in with an IC50 below 0.1 µM.

As to `Cc1cc(Nc2ncnc3sc4c(c23)CCN(C(=O)/C=C/CN2CC3C(CO)C3C2)C4)ccc1Oc1ccc2ncnn2c1` (centres unmarked) [Compound 81], the half-maximal inhibitory concentration (IC50) is below 0.1 µM.

As to `CCOC/C=C/C(=O)N1CCc2c(sc3ncnc(Nc4ccc(Oc5ccc(C)nc5)c(C)c4)c23)C1` [Compound 96, (E)-4-ethoxy-1-(4-((3-methyl-4-((6-methylpyridin-3-yl)oxy)phenyl)amino)-5,8-dihydropyrido[4′,3′:4,5]thieno[2,3-d]pyrimidin-7(6H)-yl)but-2-en-1-one], the half-inhibitory concentration (IC50) is below 0.1 µM.

Take `Cc1ncc(Oc2ccc(Nc3ncnc4sc5c(c34)CCN(C(=O)/C=C/CN(C)C)C5)cc2C)cn1` [Compound 21, (E)-4-(dimethylamino)-1-(4-((3-methyl-4-((2-methylpyrimidin-5-yl)oxy)phenyl)amino)-5,8-dihydropyrido[4′,3′:4,5]thieno[2,3-d]pyrimidin-7(6H)-yl)but-2-en-1-one]: the IC50 was in the range of 0.1 to 1 µM.

Consider `Cc1ccc(Oc2ccc(Nc3ncnc4sc5c(c34)CCN(C(=O)/C=C/CN3CCn4cc(C(F)(F)F)nc4C3)C5)cc2C)cn1` [Compound 61], for which the IC50 was 1 to 10 µM.

`CON(C)C/C=C/C(=O)N1CCc2c(sc3ncnc(Nc4ccc(Oc5ccc(C)nc5)c(C)c4)c23)C1` [Compound 56] yielded an IC50 of 0.1 to 1 µM.

As to `Cc1ccc(Oc2ccc(Nc3ncnc4sc5c(c34)CCN(C(=O)/C=C/CN3CCC(O)C3)C5)cc2C)cn1` (centres unmarked) [Compound 74], the IC50 is below 0.1 µM.

`Cc1ccc(Oc2ccc(Nc3ncnc4sc5c(c34)CCN(C(=O)/C=C/CN3CCN4C(=O)CCC4C3)C5)cc2C)cn1` (centres unmarked) [Compound 58] displayed an IC50 of 0.1 to 1 µM.

As to `Cc1ccc(Oc2ccc(Nc3ncnc4sc5c(c34)CCN(C(=O)/C=C/CN[C@H]3CC[C@H](OC(F)F)CC3)C5)cc2C)cn1` [Compound 69], the half-inhibitory concentration (IC50) was below 0.1 µM.

`Cc1ccc(Oc2ccc(Nc3ncnc4sc5c(c34)CCN(C(=O)/C=C/CNCc3ccsc3)C5)cc2C)cn1` [Compound 52] showed a concentration for half-maximal inhibition (IC50) below 0.1 µM.

Regarding `Cc1ccc(Oc2ccc(Nc3ncnc4sc5c(c34)CCN(C(=O)/C=C/CNC3CC3)C5)cc2C)cn1` [Compound 40], the IC50 was below 0.1 µM.

In turn, `Cc1ccc(Oc2ccc(Nc3ncnc4sc5c(c34)CCN(C(=O)/C=C/CN3CC=CCC3)C5)cc2C)cn1` [Compound 55] gave an IC50 below 0.1 µM.

With `Cc1ccc(Oc2ccc(Nc3ncnc4sc5c(c34)CCN(C(=O)/C=C/CN3CC(O)C3)C5)cc2C)cn1` [Compound 53], the 50% inhibitory concentration (IC50) was below 0.1 µM.

`Cc1ccc(Oc2ccc(Nc3ncnc4sc5c(c34)CCN(C(=O)/C=C/CNCCO)C5)cc2C)cn1` [Compound 65] displayed a half-maximal inhibitory concentration (IC50) below 0.1 µM.

In the case of `Cc1cc(Nc2ncnc3sc4c(c23)CCN(C(=O)/C=C/CN(C)C)C4)ccc1Oc1ccc2cn[nH]c2c1` [Compound 23, (E)-1-(4-((4-((1H-indazol-6-yl)oxy)-3-methylphenyl)amino)-5,8-dihydropyrido[4′,3′:4,5]thieno[2,3-d]pyrimidin-7(6H)-yl)-4-(dimethylamino)but-2-en-1-one], the IC50 is below 0.1 µM.

Turning to `Cc1cc(Nc2ncnc3sc4c(c23)CCN(C(=O)/C=C/CN2CC(C)(C)OC(C)(C)C2)C4)ccc1Oc1ccc2ncnn2c1` [Compound 84], the IC50 lay within 0.1 to 1 µM.

Regarding `Cc1ccc(Oc2ccc(Nc3ncnc4sc5c(c34)CN(C(=O)/C=C/CN(C)C)C5)cc2C)cn1` [Compound 99, (E)-4-(dimethylamino)-1-(4-((3-methyl-4-((6-methylpyridin-3-yl)oxy)phenyl)amino)-5,7-dihydro-6H-pyrrolo[3′,4′:4,5]thieno[2,3-d]pyrimidin-6-yl)but-2-en-1-one], the IC50 is below 0.1 µM.

`Cc1ccc(Oc2ccc(Nc3ncnc4sc5c(c34)CCN(C(=O)/C=C/CN[C@H]3CCC[C@H](O)C3)C5)cc2C)cn1` [Compound 73] displayed an IC50 below 0.1 µM.

The molecule `CNC(=O)CNC/C=C/C(=O)N1CCc2c(sc3ncnc(Nc4ccc(Oc5ccc(C)nc5)c(C)c4)c23)C1` [Compound 39] showed a half-inhibitory concentration (IC50) below 0.1 µM.

With `CCN1CCN(C/C=C/C(=O)N2CCc3c(sc4ncnc(Nc5ccc(Oc6ccc(C)nc6)c(C)c5)c34)C2)CC1` [Compound 46], the IC50 fell in the range of 0.1 to 1 µM.

For `Cc1cc(Nc2ncnc3sc4c(c23)CCN(C(=O)/C=C/CN(C)C)C4)ccc1Oc1cccc(B(O)O)c1` [Compound 64, (E)-(3-(4-((7-(4-(dimethylamino)but-2-enoyl)-5,6,7,8-tetrahydropyrido[4′,3′:4,5]thieno[2,3-d]pyrimidin-4-yl)amino)-2-methylphenoxy)phenyl)boronic acid], the half-inhibitory concentration (IC50) was below 0.1 µM.

`Cc1cc(Nc2ncnc3sc4c(c23)CCN(C(=O)/C=C/CN2CC(C)OC(C)C2C)C4)ccc1Oc1ccc2ncnn2c1` (centres unmarked) [Compound 83] showed a 50% inhibitory concentration (IC50) of 0.1 to 1 µM.

In the case of `C=CC(=O)N1CCc2[nH]c3ncnc(Nc4ccc(Oc5ccc(C)nc5)c(C)c4)c3c2C1` [Compound 94, 1-(4-((3-methyl-4-((6-methylpyridin-3-yl)oxy)phenyl)amino)-7,8-dihydro-5H-pyrido[3′,4′:4,5]pyrrolo[2,3-d]pyrimidin-6(9H)-yl)prop-2-en-1-one], the 50% inhibitory concentration (IC50) was below 0.1 µM.

As to `Cc1cc(Nc2ncnc3sc4c(c23)CCN(C(=O)/C=C/CN(C)C)C4)ccc1Oc1ccc2nonc2c1` [Compound 104, (E)-1-(4-((4-(Benzo[c][1,2,5]oxadiazol-5-yloxy)-3-methylphenyl)amino)-5,6-dihydropyrido[4′,3′:4,5]thieno[2,3-d]pyrimidin-7(8H)-yl)-4-(dimethylamino)but-2-en-1-one], the IC50 was below 0.1 µM.

The molecule `O=C(/C=C/CN1CC2CC1CO2)N1CCc2c(sc3ncnc(Nc4ccc(Oc5ccc6ncnn6c5)c(Cl)c4)c23)C1` (centres unmarked) [Compound 87] gave an IC50 below 0.1 µM.

For the molecule `Cc1ccc(Oc2ccc(Nc3ncnc4sc5c(c34)CCN(C(=O)/C=C/CNCCS(C)(=O)=O)C5)cc2C)cn1` [Compound 45], the IC50 was below 0.1 µM.

Take `O=C(/C=C/CN1CC2CCC(C2)C1)N1CCc2c(sc3ncnc(Nc4ccc(Oc5ccc6ncnn6c5)c(Cl)c4)c23)C1` [Compound 88]: the half-maximal inhibitory concentration (IC50) was below 0.1 µM.

Turning to `Cc1ccc(Oc2ccc(Nc3ncnc4sc5c(c34)CCN(C(=O)/C=C/CN3CCC4(CCOC4)C3)C5)cc2C)cn1` (centres unmarked) [Compound 67], the IC50 was below 0.1 µM.

Turning to `Cc1ccc(Oc2ccc(Nc3ncnc4sc5c(c34)CCN(C(=O)/C=C/CN3C4CCC3CC4)C5)cc2C)cn1` [Compound 44], the IC50 is below 0.1 µM.

The molecule `Cc1cc(Nc2ncnc3sc4c(c23)CCN(C(=O)/C=C/CN(C)C)C4)ccc1Oc1ccc2[nH]ncc2c1` [Compound 22, (E)-1-(4-((4-((1H-indazol-5-yl)oxy)-3-methylphenyl)amino)-5,8-dihydropyrido[4′,3′:4,5]thieno[2,3-d]pyrimidin-7(6H)-yl)-4-(dimethylamino)but-2-en-1-one] returned an IC50 below 0.1 µM.

With `Cc1cc(Nc2ncnc3sc4c(c23)CCN(C(=O)/C=C/CN2CC3CC(C3)C2)C4)ccc1Oc1ccc2ncnn2c1` [Compound 82], the IC50 was below 0.1 µM.

`Cc1ccc(Oc2ccc(Nc3ncnc4sc5c(c34)CCN(C(=O)/C=C/CN[C@H]3CC[C@H](OCC(F)(F)F)CC3)C5)cc2C)cn1` [Compound 70] registered an IC50 below 0.1 µM.

For the molecule `Cc1ccc(Oc2ccc(Nc3ncnc4sc5c(c34)CCN(C(=O)/C=C/CN3CC4CC4C3)C5)cc2C)cn1` (centres unmarked) [Compound 76], the IC50 is below 0.1 µM.

In turn, `O=C(/C=C/CN1CC2C(CO)C2C1)N1CCc2c(sc3ncnc(Nc4ccc(Oc5ccc6ncnn6c5)c(Cl)c4)c23)C1` (centres unmarked) [Compound 92] gave a half-inhibitory concentration (IC50) below 0.1 µM.

As for `Cc1ccc(Oc2ccc(Nc3ncnc4sc5c(c34)CCN(C(=O)/C=C/CN3CC4(C3)CS(=O)(=O)C4)C5)cc2C)cn1` [Compound 57], the IC50 is below 0.1 µM.

As for `Cc1ccc(Oc2ccc(Nc3ncnc4sc5c(c34)CCN(C(=O)/C=C/CNC3COC3)C5)cc2C)cn1` [Compound 38], the half-maximal inhibitory concentration (IC50) was below 0.1 µM.

Take `Cc1ccc(Oc2ccc(Nc3ncnc4sc5c(c34)CCN(C(=O)/C=C/CN3C[C@H]4CC[C@@H](C3)O4)C5)cc2C)cn1` [Compound 66]: the IC50 is below 0.1 µM.

In turn, `Cc1ccc(Oc2ccc(Nc3ncnc4sc5c(c34)CCN(C(=O)/C=C/CNC3CCOC3)C5)cc2C)cn1` (centres unmarked) [Compound 47] yielded an IC50 below 0.1 µM.

The molecule `Cc1ccc(Oc2ccc(Nc3ncnc4sc5c(c34)CCN(C(=O)/C=C/CN[C@H]3CC[C@H](OC4CC4)CC3)C5)cc2C)cn1` [Compound 68] returned an IC50 below 0.1 µM.

For the molecule `Cc1ccc(Oc2ccc(Nc3ncnc4sc5c(c34)CCN(C(=O)/C=C/CNC3CCC(C(=O)N(C)C)CC3)C5)cc2C)cn1` (centres unmarked) [Compound 71], the IC50 is below 0.1 µM.

On to `Cc1ccc(Oc2ccc(Nc3ncnc4sc5c(c34)CCN(C(=O)/C=C/CN3CCCC3C(N)=O)C5)cc2C)cn1` (centres unmarked) [Compound 41], for which the IC50 was below 0.1 µM.

Molecule `Cc1ccc(Oc2ccc(Nc3ncnc4sc5c(c34)CCN(C(=O)/C=C/CN[C@@H](C)CO)C5)cc2C)cn1` [Compound 75] had an IC50 below 0.1 µM.

Take `C=CC(=O)N1CCc2[nH]c3ncnc(Nc4ccc(Oc5ccc6ncnn6c5)c(C)c4)c3c2C1` [Compound 102, 1-(4-((4-([1,2,4]triazolo[1,5-a]pyridin-6-yloxy)-3-methylphenyl)amino)-5,7,8,9-tetrahydro-6H-pyrido[3′,4′:4,5]pyrrolo[2,3-d]pyrimidin-6-yl)prop-2-en-1-one]: the 50% inhibitory concentration (IC50) was below 0.1 µM.

In turn, `Cc1ccc(Oc2ccc(Nc3ncnc4sc5c(c34)CCN(C(=O)/C=C/CN3CC(O)CO3)C5)cc2C)cn1` (centres unmarked) [Compound 43] came in with a half-maximal inhibitory concentration (IC50) of 0.1 to 1 µM.

`Cc1ccc(Oc2ccc(Nc3ncnc4sc5c(c34)CCN(C(=O)/C=C/CNCc3cc(C)n[nH]3)C5)cc2C)cn1` [Compound 49] had an IC50 below 0.1 µM.

On to `Cc1ccc(Oc2ccc(Nc3ncnc4sc5c(c34)CCN(C(=O)/C=C/CNC3CCC3)C5)cc2C)cn1` [Compound 54], for which the IC50 is below 0.1 µM.

The values above are taken from US20240391931A1 (Bristol-Myers Squibb Company, priority 2021, published 2024).
